Marks after values point to notes of the source that are not given here.
Legend:
[1] = system: TNF-α mRNA; test: Hepatic TNF-α mRNA expression by qPCR, CDAA/high-fat diet mouse model; type: in vivo; conditions: CDAA/high-fat fed mice
From the text: (§1) Mice were fed either choline-sufficient (CS) or choline deficient high-fat diets (31% total calories; “CDAA/high-fat”). The NASH inducing diet was instigated 6 weeks prior to the commencement of treatment in order to design the study as a treatment/reversal set-up rather than prophylaxis.
After 6 weeks of either the CS- or CDAA diet, mice were orally administered Compound A or comparison Compound N, both at 2 doses, 0.15 mmol/kg bw/day (low-dose, LD) and 0.3 mmol/kg bw per day (high-dose, HD). The test substances were administered orally as admix to the high-fat diet. Hepatic fibrosis was assessed by both measurement of hydroxyproline (HYP) content and Sirius Red (SR) morphometry. Fibrosis, inflammation and metabolism related transcripts levels were measured by quantitative real-time polymerase chain reaction (qPCR).
(§2) Studies were performed in male C56BL/6J mice (9 weeks old). Mice were divided into 6 experimental groups (n=9 per group) containing either CS or CDAA/high-fat diets, as described above. The NASH inducing CDAA/high fat diet was instigated 6 weeks prior to the commencement of treatment in order to assess treatment/reversal rather than prophylaxis. […] Compound A was administered orally as admix to the high-fat diet whilst GLP-1 agonist was delivered via intraperitoneal injection (i.p.). Fibrosis, inflammation and metabolism related transcripts levels were measured by quantitative real-time polymerase chain reaction (qPCR) in isolated liver tissue.

[2] = system: CDAA/high-fat fed mice; test: Hepatic collagen fiber number, thickness and length by nonlinear multiphoton optical imaging, CDAA/high-fat diet mouse model; type: in vivo; conditions: Compound A 56 mg/kg bw per day orally
Description: as §1
In Biological Examples 6 and 7, mice were fed either CS or CDAA/high-fat diets as described above. […] The effect on hepatic collagen fiber number, thickness, and length was determined via nonlinear multiphoton optical imaging system in isolated liver samples from vehicle control (n=8), Compound A (n=9) and GLP-1R (n=8) fed groups.

[3] = system: TIMP-1a mRNA; test: Hepatic TIMP-1a mRNA expression by qPCR, CDAA/high-fat diet mouse model; type: in vivo; conditions: CDAA/high-fat fed mice; Compound A 0.3 mmol/kg bw/day oral; GLP-1a 0.4 mg/kg once weekly i.p.; alone or combined
Description: as §1, §2

[4] = Body weight, liver weight and food intake in ob/ob AMLN mice; type: in vivo, mouse
Description: (§3) Obese diet-induced B6.V-Lepob/Jrj mice (ob/ob) are consistently fibrosis (liver) prone when cholesterol (2%), 40% fat (containing 18% trans-fatty acids) and 20% fructose are added to a high-caloric diet (i.e., AMLN high-fat diet). ob/ob mice on AMLN diet (termed ‘ob/ob AMLN mice’) develop steatohepatitis and fibrosis within a shorter timeframe ([…]) compared with wild-type C57BL/6 mice (AMLN mice) fed the same diet. ob/ob AMLN mice provide an obese diet-induced model of NASH that also allows the study of effects on glycemic control. Development of NASH in the ob/ob AMLN model is confirmed by biopsy.
(§4) In Biological Examples 10-12, 15, and 19, studies were performed in male ob/ob mice (5 weeks old) fed an AMLN high-fat diet for 15 weeks, then randomized into 3 groups (n=10 per group) to receive either 112 mg/kg bw per day of Compound A via diet, 30 mg/kg bw per day pioglitazone via diet or no treatment (vehicle) for a further 4 weeks. An oral glucose tolerance test (OGTT) was performed at week 3. Hepatic fibrosis was assessed via measurements of hepatic fibrogenic/fibrolytic gene expression by RNA sequencing at 4 weeks.
(§5) In Biological Examples 10, 13-14, and 16-18, studies were performed in male ob/ob mice (5 weeks old) fed an AMLN high-fat diet for 18 weeks, then randomized into 6 groups (n=10 per group) to receive either Compound A (at 3 different daily doses, 45 mg/kg, 90 mg/kg or 135 mg/kg) via diet, 30 mg/kg bw per day obeticholic acid (OCA) via diet, or no treatment (vehicle) for a further 8 weeks. Assessment of NASH related parameters and fibrosis was made at study end by quantitative immune histochemistry (IHC) measurements.

[5] = system: inflammatory genes; test: Hepatic inflammatory gene expression in ob/ob AMLN mice; type: in vivo, mouse; conditions: 4 weeks, Compound A 112 mg/kg
Description: as §3, §4

[6] = system: col1A1; test: Hepatic col1A1 content by quantitative IHC in ob/ob AMLN mice; type: in vivo, mouse; conditions: 8 weeks
Description: as §3, §5

[7] = system: galectin-3 (Gal-3); test: Hepatic galectin-3 (Gal-3) levels by IHC in ob/ob AMLN mice; type: in vivo, mouse; conditions: 8 weeks, Compound A 45, 90, 135 mg/kg
Description: as §3, §5
To assess the effects of 8 weeks treatment with either Compound A (45 mg/kg, 90 mg/kg, or 135 mg/kg) or OCA (30 mg/kg) on hepatic inflammation in ob/ob AMLN mice, IHC was performed to assess galectin-3 (Gal-3) levels.

[8] = system: LX-2 human hepatic stellate cells; test: LX-2 cell viability by MTS assay; type: cell-based; conditions: LX-2 cells; 24 hours; Compound A 10-75 μM, OA 75 μM
Description: Stellate cells are resident liver cells and the major cell type involved in the initiation and progression of liver fibrosis. In Biological Example 20, in vitro studies were performed on cultured human stellate cells (LX-2 cells) to assess direct effects of Compound A on these cells. Cells were treated for 24 hours with Compound A (10 μM, 25 μM, 50 μM, or 75 μM) or oleic acid (OA; 75 μM) and bromodeoxyuridine (BrdU) incorporation was assessed to determine effects on proliferation. A MTS (3-(4,5-dimethylthiazol-2-yl)-5-(3-carboxymethoxyphenyl)-2-(4-sulfophenyl)-2H-tetrazolium) assay was used to determine cell viability.
Cell proliferation of LX-2 human hepatic stellate cells treated for 24 hours with 10-75 μM of Compound A or oleic acid (OA) (75 μM) was assessed by BrdU incorporation. The results are normalised mean values ±S.E.M. of 5 independent experiments for icosabutate and 2 independent experiments for OA. […] The reduction in proliferation by Compound A was 25-34% at 24 hours whereas OA had no effect. The comparisons were made by one-way ANOVA with Dunnett's correction for multiple comparisons.

[9] = 8 weeks, Compound A 45, 90 and 135 mg/kg, OCA 30 mg/kg bw per day
[10] = pioglitazone 30 mg/kg, data not shown
[11] = pioglitazone 30 mg/kg, vs vehicle

## CC/C=C\C/C=C\C/C=C\C/C=C\C/C=C\CCCCOC(CC)C(=O)O (stereo not shown) [Compound A, 2-((5Z,8Z,11Z,14Z,17Z)-icosa-5,8,11,14,17-pentaenyloxy)butanoic acid]
[1]; Compound A 0.3 mmol/kg bw/day oral, GLP-1a 0.4 mg/kg once weekly i.p., alone or combined
  TNF-α (relative mRNA expression): 0.65***
[1]; HD 0.3 mmol/kg bw per day
  TNF-a (relative mRNA expression): 0.65***
[1]; LD 0.15 mmol/kg bw/day
  TNF-a (relative mRNA expression): 0.75***
[2]
  collagen fiber length: slight increases
  collagen fiber thickness: slight increases
  short (<8.5 μm) and thin (<3.5 μm) collagen fibers: almost complete disappearance
[2]; p=0.01
  reduction of collagen fiber numbers: 51%
[3]
  TIMP-1a (relative mRNA expression): 2***
[4]; 4 weeks, Compound A 112 mg/kg
  body weight: no effect
[4]; [9]
  body weight: neither Compound A (45 mg/kg, 90 mg/kg, and 135 mg/kg) nor OCA significantly affected body weight
  food intake: not affected
[5]; data not shown
  MAC-2 expression: Significant reductions
[5]; [10]
  MCP-1 transcript levels: Neither compound significantly reduced
  interleukin (IL)-1β transcript levels: Neither compound significantly reduced
[5]; [11]
  CCR2 expression: Significant reductions
  CD14 expression: Significant reductions
  CD68 expression: Significant reductions
  transcript levels of TGF-β1: reduced
  transcript levels of TGF-β1 receptor (TGFRβ): reduced
[5]; vs vehicle
  Galectin-3 (Gal-3) levels: significantly reduced
[6]; Compound A 45 mg/kg
  col1A1 content compared with pre-biopsy content: trend towards decreased col1A1 content
  col1A1 levels as a percentage of total surface area: not statistically significant
[6]; Compound A 90 mg/kg
  col1A1 levels as a percentage of total surface area: significant reduction
  total col1A1 content: reduced
[6]; Compound A 90 mg/kg, decrease, p<0.005
  col1A1 content compared with pre-biopsy content: statistically significant
[6]; Compound A 135 mg/kg
  col1A1 content compared with pre-biopsy content: trend towards decreased col1A1 content
  col1A1 levels as a percentage of total surface area: not statistically significant
  total col1A1 content: reduced
[7]
  Gal-3 expression level, percentage of area: dose responsive reduction
[7]; OCA 30 mg/kg
  Gal-3 expression level, total content: dose responsive reduction
[8]
  cell viability (MTS assay): neither Compound A nor OA showed a significant effect

— patent US12440466B2, “Fatty acid derivatives for treating non-alcoholic steatohepatitis” (BASF AS, priority 2017, dated 2025)
